Laboratory results published in patent US20240269220A1, “USES OF BLETILLA FORMOSANA EXTRACT FOR THE TREATMENT OF DISEASES ASSOCIATED WITH DYSREGULATED ACTIVATION OF NEUTROPHILS” (Chang Gung University, priority 2022, published 2024).

Columns and labels:
[1] = test system: fMLF/CB-activated human neutrophils; assay: Extracellular superoxide anion production (ferricytochrome c reduction) in fMLF/CB-activated human neutrophils; format: cell-based; details: Neutrophil, chemical components of the extract, read-out: Superoxide anions IC50
Procedure: (§1) The study was conducted with the approval of the Institutional Review Board of Chang Gung Memorial Hospital in accordance with the Declaration of Helsinki. After written informed consent was obtained, whole blood samples were drawn from healthy individuals aged 20-30 years who had not taken any medication within the previous 5 weeks. Neutrophils were then isolated using the standard procedures for dextran sedimentation, Ficoll-Hypaque gradient centrifugation, and hypotonic lysis of erythrocytes. The isolated neutrophils were then suspended in Ca^2+-free HBSS (pH 7.4) and stored at 4° C. until use.
Extracellular superoxide anion production in activated neutrophils was assessed through the reduction of ferricytochrome c. After incubating them with Ca^2+(1 mM) and ferricytochrome c (0.6 mg/mL) at 37° C., the isolated human neutrophils (6×10^5 cells/mL) were then incubated with DMSO or the present B. formosana extract for 5 min. The cells were pretreated with cytochalasin B (CB, 1 or 2 μg/mL) for 3 min and stimulated with fMLF. The change in absorbance at 550 nm was detected continuously using a spectrophotometer (U-3010, Hitachi, Tokyo, Japan), and superoxide anion levels were calculated using a method described previously (Hwang et al., 2003 Mol. Pharmacol. 64(6), 1419-1427).

[2] = test system: fMLF/CB-activated human neutrophils; assay: Neutrophil elastase release in fMLF/CB-activated human neutrophils; format: cell-based; details: chemical components of the extract
Procedure: as §1
Human neutrophils (6×10^5 cells/mL) were incubated with DMSO or the present B. formosana extract after treatment with 1 mM CaCl2 and 100 μM NE substrate (Methoxysuccinyl-Ala-Ala-Pro-Val-p-nitroanilide) at 37° C. for 5 min. Cells were stimulated with fMLF (0.1 μM)/cytochalasin B (CB) (0.5 μg/mL) for 10 min before determination of NE release by measuring the change of absorbance at 405 nm in a spectrophotometer.

Structure (SMILES) | IC50 [1] [µM] | IC50 [2] [µM]
COc1cc(O)c(Cc2ccc(O)cc2)c2c1-c1ccc(O)cc1CC2 [Orchidble, 9,10-dihydro-1-[(4-hydroxyphenyl)methyl]-4-methoxy-2,7-phenanthrenediol] | 0.66 ± 0.12 | 6.26 ± 1.19
COc1cc(O)cc(CCc2cccc(O)c2)c1 [Batatasin III, 3,3′-dihydroxy-5-methoxybibenzyl] | 4.3 ± 0.5 | > 10
COc1cccc(CCc2cc(O)cc(OC)c2)c1 [BF8-4-2, 3′,5-dimethoxy-3-hydroxybibenzyl] | 4.63 ± 0.54 | > 10
COc1cc(O)cc(CCc2ccccc2)c1 [BF8-4-4, 3-hydroxy-5-methoxybibenzyl] | 1.86 ± 0.21 | 2.71 ± 0.16
COc1cc(CCc2cccc(O)c2)cc(OC)c1 [BF8-4-3, 3,5-dimethoxy-3′-hydroxybibenzyl] | 4.64 ± 0.23 | 7.41 ± 0.5
